The values that follow are results of earlier work, collected in patent US20090117176A1, “Anticancer Treatments” (Pharma Mar, S.A. Sociedad Unipersonal, priority 2004, published 2009).

For the data set the following is noted: high-dose dexamethasone pretreatment, female rat; cited from earlier work.

Take `C[C@@H]1C[C@H]2[C@@H]3CCC4=CC(=O)C=C[C@]4(C)[C@@]3(F)[C@@H](O)C[C@]2(C)[C@@]1(O)C(=O)CO` [dexamethasone]: the “effect of pretreatment on ET-743 hepatotoxicity” value is recorded as “abrogate ET-743-mediated hepatotoxicity”.
